Data published in US11214803B2, “Modulators of YAP1 expression” (Ionis Pharmaceuticals, Inc., priority 2019, dated 2022).
Several values for one entry are separate records, joined by “and”; a condition that tells them apart may be missing. Equal entries are not always repeated. Marks after values point to notes of the source that are not given here.

Tests used:
[1] = Tolerability in Sprague-Dawley rats, plasma chemistry markers (Example 21); assay type: in vivo; conditions: male Sprague-Dawley rats, 50 mg/kg s.c. weekly for 6 weeks (7 doses), 48 hours after last dose
Method: (§1) Sprague-Dawley rats are a multipurpose model used for safety and efficacy evaluations. The rats were treated with Ionis modified oligonucleotides from the studies described in the Examples above and evaluated for changes in the levels of various plasma chemistry markers.

[2] = Tolerability in Sprague-Dawley rats, body and organ weights (Example 21); assay type: in vivo; conditions: male Sprague-Dawley rats, 50 mg/kg s.c. weekly for 6 weeks (7 doses); for Kidney weight / Liver weight / Spleen weight: end of study; for body weight: terminal, prior to necropsy
Method: Terminal body weight was measured prior to necropsy. Ionis oligonucleotides that caused any changes in organ weights outside the expected range for modified oligonucleotides were excluded from further studies.

[3] = system: Yap1 mRNA; assay: Dose-dependent inhibition of human Yap1 in A-431 cells (Example 8, 10,000 cells per well, RTS4814); assay type: cell-based; conditions: for % UTC (Yap1 mRNA) / IC50: A-431 cells; for Yap1 mRNA, % UTC: A-431 cells, 10,000 cells per well
Procedure, shortened: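 Yap1 mRNA, normalized to RIBOGREEN total RNA and expressed as % untreated control, was read with RTS4814 about 48 h after free-uptake oligonucleotide treatment of A-431 cells at 10,000 cells/well. IC50 derived by linear regression of log/linear data.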

[4] = Tolerability in CD-1 mice, plasma chemistry markers (Example 18); assay type: in vivo; conditions: male CD-1 mice, 50 mg/kg s.c. twice a week (total of 9 treatments), day 34
Method: CD-1 mice were treated with modified oligonucleotides selected from studies described above and evaluated for changes in the levels of various plasma chemistry markers.
(§2) Groups of four male CD-1 mice at 5-6 weeks of age (obtained from Charles River) were injected subcutaneously twice a week for four weeks (for a total of 9 treatments) with 50 mg/kg of modified oligonucleotides. One group of male CD-1 mice was injected with PBS. Mice were euthanized on day 34 post start of treatment (24 hours following the final administration).

[5] = Tolerability in CD-1 mice, body and organ weights (Example 18); assay type: in vivo; conditions: male CD-1 mice, 50 mg/kg s.c. twice a week (total of 9 treatments), end of study (day 34)
Method: as §2
Body weights of CD-1 mice were measured at the end of the study, and the average body weight for each group is presented in the table below. Modified oligonucleotides that caused any changes in organ weights outside the expected range for modified oligonucleotides were excluded from further studies.

[6] = Tolerability in Sprague-Dawley rats, plasma chemistry markers (Example 20); assay type: in vivo; conditions: male Sprague-Dawley rats, 50 mg/kg s.c. weekly for 6 weeks (7 doses), 48 hours after last dose
Method: as §1

[7] = system: Yap1 mRNA; assay: Yap1 mRNA levels in SNU449 xenograft tumors (first Example 30); assay type: in vivo, human; conditions: SNU449 xenograft mice, 50 mg/kg, tumors collected day 119 post implantation, relative to PBS
Method: (§3) Modified oligonucleotides described in the studies above were tested in a hepatocellular carcinoma SNU449 xenograft tumor model. A control oligonucleotide 792169 was also tested.
(§4) Five million SNU449 cells in 30% matrigel were implanted subcutaneously into the fatpads of female NOD.Cg-Prkdcscid II2rgtmlWjl/SzJ mice (from Jackson Laboratory) at 4-6 weeks of age. 43 days post implantation (when tumors had reached approximately 100 mm^3 in size), groups of eight mice each were administered with 50 mg/kg modified oligonucleotide daily for 10 days (loading dose), following which they were administered with 50 mg/kg modified oligonucleotide four times a week for one week, following which they were dosed with 50 mg/kg modified oligonucleotide thrice weekly until the end of the study. Animals were sacrificed and tumors were collected on day 119 post implantation. Yap1 mRNA knockdown in tumors was measured by RT-qPCR as previously described using the Human Yap1 primer-probe set RTS4814. Yap1 mRNA levels were normalized to actin-beta content, as measured by primer probe set RTS5002. Results are presented in the tables below as percent control of the amount of Yap1 mRNA relative to PBS treated animals (% control).

[8] = system: SNU449 xenograft tumor; assay: Tumor volume in SNU449 xenograft tumor model (first Example 30); assay type: in vivo, human; conditions: 50 mg/kg
Method: as §3, §4
Tumor volumes were also measured at the indicated days in the table below

[9] = system: Yap1 mRNA; assay: Yap1 mRNA levels in SNU449 xenograft tumors, alone and in combination with sorafenib (second Example 30); assay type: in vivo, human; conditions: SNU449 xenograft mice, oligonucleotide 50 mg/kg, sorafenib 30 mg/kg orally, tumors collected day 119 post implantation, relative to PBS
Method: Modified oligonucleotides described in the studies above were tested in a hepatocellular carcinoma SNU449 xenograft tumor model. In addition to testing the modified oligonucleotide by itself, combination therapy with sorafenib was also tested. A control oligonucleotide 792169, described herein above, was also tested.
Five million SNU449 cells in 30% matrigel were implanted subcutaneously into the fatpads of female NOD.Cg-Prkdcscid II2rgtmlWjl/SzJ mice (from Jackson Laboratory) at 4-6 weeks of age. 43 days post implantation (when tumors had reached approximately 100 mm^3 in size), groups of eight mice each were administered with 50 mg/kg modified oligonucleotide daily for 10 days (loading dose), following which they were administered with 50 mg/kg modified oligonucleotide four times a week for one week, following which they were dosed with 50 mg/kg modified oligonucleotide thrice weekly until the end of the study. […] Animals were sacrificed, and tumors were collected on day 119 post implantation.
Yap1 mRNA knockdown in tumors was measured by RT-qPCR as previously described using the Human Yap1 primer-probe set RTS4814. Yap1 mRNA levels were normalized to actin-beta content, as measured by primer probe set RTS5002. Results are presented in the tables below as percent control of the amount of Yap1 mRNA relative to PBS treated animals (% control).

[10] = day 101 post tumor implantation
[11] = day 105 post tumor implantation
[12] = day 108 post tumor implantation
[13] = day 119 post tumor implantation

1198439 (AGTGTATGTCAGAAGA; sugar, 5-methylcytosine, phosphorothioate modifications, further chemistry not given here) [compound 1198439]
ALT [1]: 54* U/L
AST [1]: 94* U/L
BUN [1]: 22* mg/dL
TBIL [1]: 0.15* mg/dL
Kidney weight [2]: 3.68* g
Liver weight [2]: 17* g
Spleen weight [2]: 2.28* g
body weight [2]: 319* g

958499 (ATTAGAGTATGTGGCA; 3-10-3 cEt gapmer, further chemistry not given here) [compound 958499]
% UTC (Yap1 mRNA) ([3]; 31.3 nM): 36 % UTC and 37 % UTC
% UTC (Yap1 mRNA) ([3]; 125.0 nM): 5 % UTC and 4 % UTC
% UTC (Yap1 mRNA) ([3]; 500.0 nM): 2 % UTC
% UTC (Yap1 mRNA) ([3]; 2000.00 nM): 2 % UTC
IC50 ([3]; Yap1 mRNA): < 20 nM
ALT [4]: 79 U/L
AST [4]: 88 U/L
BUN [4]: 24 mg/dL
TBIL [4]: 0.18 mg/dL
Kidney weight [5]: 0.57 g
Liver weight [5]: 2.20 g
Spleen weight [5]: 0.22 g
body weight [5]: 39 g
ALB [6]: 2.78 g/dL
ALT [6]: 61 U/L
AST [6]: 109 U/L
BUN [6]: 24 mg/dL
TBIL [6]: 0.18 mg/dL

1198440 (AAGTGTATGTCAGAAG; cEt, 2'-MOE, 5-methylcytosine, phosphorothioate modifications, further chemistry not given here) [compound 1198440]
ALT [1]: 58** U/L
AST [1]: 108** U/L
BUN [1]: 20** mg/dL
TBIL [1]: 0.17** mg/dL
Kidney weight [2]: 3.29 g
Liver weight [2]: 18 g
Spleen weight [2]: 2.78 g
body weight [2]: 373 g
Yap1 mRNA levels in tumors [7]: 34 % control
Average Tumor Volume ([8]; day 43 post tumor implantation): 111 mm^3
Average Tumor Volume ([8]; day 46 post tumor implantation): 152 mm^3
Average Tumor Volume ([8]; day 50 post tumor implantation): 168 mm^3
Average Tumor Volume ([8]; day 53 post tumor implantation): 201 mm^3
Average Tumor Volume ([8]; day 57 post tumor implantation): 242 mm^3
Average Tumor Volume ([8]; day 60 post tumor implantation): 263 mm^3
Average Tumor Volume ([8]; day 64 post tumor implantation): 338 mm^3
Average Tumor Volume ([8]; day 67 post tumor implantation): 376 mm^3
Average Tumor Volume ([8]; day 71 post tumor implantation): 373 mm^3
Average Tumor Volume ([8]; day 75 post tumor implantation): 401 mm^3
Average Tumor Volume ([8]; day 78 post tumor implantation): 429 mm^3
Average Tumor Volume ([8]; day 81 post tumor implantation): 514 mm^3
Average Tumor Volume ([8]; day 85 post tumor implantation): 606 mm^3
Average Tumor Volume ([8]; day 88 post tumor implantation): 613 mm^3
Average Tumor Volume ([8]; day 92 post tumor implantation): 690 mm^3
Average Tumor Volume ([8]; day 94 post tumor implantation): 773 mm^3
Average Tumor Volume ([8]; day 98 post tumor implantation): 804 mm^3
Average Tumor Volume [8, 10]: 818 mm^3
Average Tumor Volume [8, 11]: 894 mm^3
Average Tumor Volume [8, 12]: 921 mm^3
Average Tumor Volume [8, 13]: 978 mm^3
Yap1 mRNA levels in tumors [9]: 34 % control

CGCCGATAAGGTACAC (cEt gapmer, phosphorothioate backbone, further chemistry not given here) [ION 792169, reference compound]
Yap1 mRNA levels in tumors [7]: 90 % control
Average Tumor Volume ([8]; day 43 post tumor implantation): 111 mm^3
Average Tumor Volume ([8]; day 46 post tumor implantation): 162 mm^3
Average Tumor Volume ([8]; day 50 post tumor implantation): 180 mm^3
Average Tumor Volume ([8]; day 53 post tumor implantation): 247 mm^3
Average Tumor Volume ([8]; day 57 post tumor implantation): 280 mm^3
Average Tumor Volume ([8]; day 60 post tumor implantation): 317 mm^3
Average Tumor Volume ([8]; day 64 post tumor implantation): 397 mm^3
Average Tumor Volume ([8]; day 67 post tumor implantation): 466 mm^3
Average Tumor Volume ([8]; day 71 post tumor implantation): 519 mm^3
Average Tumor Volume ([8]; day 75 post tumor implantation): 559 mm^3
Average Tumor Volume ([8]; day 78 post tumor implantation): 634 mm^3
Average Tumor Volume ([8]; day 81 post tumor implantation): 681 mm^3
Average Tumor Volume ([8]; day 85 post tumor implantation): 785 mm^3
Average Tumor Volume ([8]; day 88 post tumor implantation): 889 mm^3
Average Tumor Volume ([8]; day 92 post tumor implantation): 1170 mm^3
Average Tumor Volume ([8]; day 94 post tumor implantation): 1215 mm^3
Average Tumor Volume ([8]; day 98 post tumor implantation): 1355 mm^3
Average Tumor Volume [8, 10]: 1417 mm^3
Average Tumor Volume [8, 11]: 1509 mm^3
Average Tumor Volume [8, 12]: 1571 mm^3
Average Tumor Volume [8, 13]: 1697* mm^3
Yap1 mRNA levels in tumors [9]: 90 % control

1076453 (GTAATATTGCAATCTG; 3-10-3 cEt gapmer, further chemistry not given here) [compound 1076453]
Yap1 mRNA, % UTC ([3]; 31.3 nM, free uptake, approximately 48 hours, RTS4814): 11 % UTC
Yap1 mRNA, % UTC ([3]; 125.0 nM, free uptake, approximately 48 hours, RTS4814): 2 % UTC
Yap1 mRNA, % UTC ([3]; 500.0 nM, free uptake, approximately 48 hours, RTS4814): 1 % UTC
Yap1 mRNA, % UTC ([3]; 2000.00 nM, free uptake, approximately 48 hours, RTS4814): 2 % UTC
IC50 ([3]; free uptake, approximately 48 hours, RTS4814, linear regression on log/linear plot): < 20 nM
ALT [4]: 56 U/L
AST [4]: 113 U/L
BUN [4]: 20 mg/dL
TBIL [4]: 0.24 mg/dL
Kidney weight [5]: 0.56 g
Liver weight [5]: 1.91 g
Spleen weight [5]: 0.20 g
body weight [5]: 38 g
ALB [6]: 3.14 g/dL
ALT [6]: 47 U/L
AST [6]: 77 U/L
BUN [6]: 23 mg/dL
TBIL [6]: 0.13 mg/dL
